Patent US4758555A, “Method for treating convulsions and epilepsy with organic copper compounds” (priority 1986, dated 1988)

Experiments:
Assay type in all cases: in vivo, male Carworth Farms #1 mice or Sprague-Dawley rats
[1] = Anticonvulsant activity, both or unspecified seizure models; conditions: for Anticonvulsant activity (in words): running text
[2] = Subcutaneous Pentylenetetrazol (Metrazol) Seizure Threshold Test; conditions: for Lowest effective dose, Metrazol (Phase I): Table X; for Anticonvulsant activity, Metrazol (Phase I): Table IV
[3] = Maximal Electroshock Seizure Test; conditions: for Lowest effective dose, MES (Phase I): Table X

Compound | Anticonvulsant activity (in words) [1] | Lowest effective dose, Metrazol (Phase I) ([2]; IP, challenge time 30 min) | Lowest effective dose, Metrazol (Phase I) ([2]; IP, challenge time 4 hrs) | Lowest effective dose, Metrazol (Phase I) ([2]; SC, challenge time 30 min) | Lowest effective dose, Metrazol (Phase I) ([2]; SC, challenge time 4 hrs) | Lowest effective dose, MES (Phase I) ([3]; IP, challenge time 30 min) | Lowest effective dose, MES (Phase I) ([3]; IP, challenge time 4 hrs) | Lowest effective dose, MES (Phase I) ([3]; SC, challenge time 30 min) | Lowest effective dose, MES (Phase I) ([3]; SC, challenge time 4 hrs) | other results
CC(C)(C)c1cc(C(=O)[O-])c(O)c(C(C)(C)C)c1.CC(C)(C)c1cc(C(=O)[O-])c(O)c(C(C)(C)C)c1.[Cu+2] [Cu(II)(3,5-ditertiarybutylsalicylate)2] | effective at the higher doses studied and for prolonged periods of up to 4 hours | – | – | – | – | – | – | – | – | Anticonvulsant activity (in words) ([1]; listed as 3,5-ditertiarybutylsalicylate): effective in preventing both the Maximal Electroshock and Metrazol-inducedseizures in Phase I studies
Cu(II)5-ethyl-5-phenylhydantoin(CH3 OH) | – | 100 milligrams per kilogram of bod | I | 100 milligrams per kilogram of bod | 300 milligrams per kilogram of bod | 100 milligrams per kilogram of bod | 100 milligrams per kilogram of bod | 100 milligrams per kilogram of bod | 30 milligrams per kilogram of bod | –
O.O.O.O=C([O-])c1cc(Br)cc(Br)c1O.O=C([O-])c1cc(Br)cc(Br)c1O.[Cu+2] [Cu(II)(3,5-dibromosalicylate)2 (H2 O)3] | effective in preventing both the Maximal Electroshock and Metrazol-inducedseizures in Phase I studies | – | – | – | – | – | – | – | – | –
O=C1CN=C(c2ccccc2Cl)c2cc([N+](=O)[O-])ccc2N1 [Clonazepam, reference compound] | – | – | – | – | – | – | – | – | – | ED50 ([2]; Mus musculus, ip, read-out: ED50 for inhibition of seizures, Metrazol (Phase II)): 0.2 mg/kg; ED50 ([3]; Mus musculus, ip, read-out: ED50 for inhibition of seizures, MES (Phase II)): 19 mg/kg
CCC1(c2ccccc2)NC(=O)NC1=O.CO.[OH][Cu][Cl] (stereo not drawn) [Cu(II)5-ethyl-5-phenylhydantoin(HO)(Cl)(CH3 OH)] | – | 30 milligrams per kilogram of bod | I | – | – | 30 milligrams per kilogram of bod | I | – | – | –
Cu(II)5-ethyl-5-phenylhydantoin(H2 O)2.5 | – | 300 milligrams per kilogram of bod | 100 milligrams per kilogram of bod | 30 milligrams per kilogram of bod | 100 milligrams per kilogram of bod | 100 milligrams per kilogram of bod | 100 milligrams per kilogram of bod | 100 milligrams per kilogram of bod | 30 milligrams per kilogram of bod | –
CCCC(C)C1(CC)C(=O)[N-]C(=S)NC1=O.CCCC(C)C1(CC)C(=O)[N-]C(=S)NC1=O.[Cu+2] (stereo not drawn) [Cu(II)(N--thiopental)2 (H2 O)2.5] | – | I | I | I | 30 milligrams per kilogram of bod | I | I | I | I | –
O=C([O-])c1ccccc1OC(=O)C12CC3CC(CC(C3)C1)C2.O=C([O-])c1ccccc1OC(=O)C12CC3CC(CC(C3)C1)C2.O=C([O-])c1ccccc1OC(=O)C12CC3CC(CC(C3)C1)C2.O=C([O-])c1ccccc1OC(=O)C12CC3CC(CC(C3)C1)C2.[Cu+2].[Cu+2] [Cu(II)2 (adamantylsalicylate)4] | anticonvulsant activity at 30 minutes following subcutaneous injection at 30 and 300 mg/kg | – | – | – | – | – | – | – | – | Anticonvulsant activity, Maximal Electroshock (Phase I) ([3]; Table I, SC): I
O.O.O=C([O-])c1cc(Cl)cc(Cl)c1O.O=C([O-])c1cc(Cl)cc(Cl)c1O.[Cu+2] [Cu(II)(3,5-dichlorosalicylate)2 (H2 O)2] | effective in preventing both the Maximal Electroshock and Metrazol-inducedseizures in Phase I studies | – | – | – | – | – | – | – | – | Anticonvulsant activity, Maximal Electroshock (Phase I) ([3]; Table II, SC): I
Cu(II)(L-glutamate)2 | found to have anticonvulsant activity | – | – | – | – | – | – | – | – | –
CCC1(CCC(C)C)C(=O)[N-]C(=O)NC1=O.CCC1(CCC(C)C)C(=O)[N-]C(=O)NC1=O.[Cu+2].c1c[nH]cn1.c1c[nH]cn1 [Cu(II)(Amobarbital)2 (imidazole)2] | – | 300 milligrams per kilogram of bod | I | I | 600 milligrams per kilogram of bod | 600 milligrams per kilogram of bod | I | I | I | –
[Cu+2].[O-]c1ccccc1C=NCCN=Cc1ccccc1[O-] [Cu(II) bissalicylatoethyleneimine] | – | – | – | – | – | – | – | – | – | Anticonvulsant activity, Metrazol (Phase I) ([2]; SC): I; Anticonvulsant activity, Maximal Electroshock (Phase I) ([3]; Table IV, IP): I; Anticonvulsant activity, Maximal Electroshock (Phase I) ([3]; Table IV, SC): I
CC(C)(C)c1ccc(C(=O)[O-])c(O)c1.CC(C)(C)c1ccc(C(=O)[O-])c(O)c1.CC(C)(C)c1ccc(C(=O)[O-])c(O)c1.CC(C)(C)c1ccc(C(=O)[O-])c(O)c1.O.[Cu+2].[Cu+2] [Cu(II)2 (4-tertiarybutylsalicylate)2.1/2H2 O] | effective at the higher doses studied and for prolonged periods of up to 4 hours | – | – | – | – | – | – | – | – | Anticonvulsant activity, Maximal Electroshock (Phase I) ([3]; Table II, SC): I
N[C@@H](Cc1c[nH]c2ccccc12)C(=O)[O-].N[C@@H](Cc1c[nH]c2ccccc12)C(=O)[O-].[Cu+2] [Cu(II)(L-tryptophanate)2] | found to have anticonvulsant activity | – | – | – | – | – | – | – | – | –
O=C([O-])c1ccccc1O.O=C([O-])c1ccccc1O.[Cu+2].c1ccncc1.c1ccncc1 [Cu(II)(salicylate)2 (pyridine)2] | – | – | – | – | – | – | – | – | – | Onset and duration of anticonvulsant action (in words) [1]: activity representative of a compound with rapid onset; Anticonvulsant activity, Maximal Electroshock (Phase I) ([3]; Table II, IP): I
Cu(II) Salicylidene-L-histidinate | – | – | – | – | – | – | – | – | – | Anticonvulsant activity, Metrazol (Phase I) ([2]; IP): I; Anticonvulsant activity, Maximal Electroshock (Phase I) ([3]; Table IV, IP): I; Anticonvulsant activity, Maximal Electroshock (Phase I) ([3]; Table IV, SC): I
CCC1(CCC(C)C)C(=O)[N-]C(=O)NC1=O.CCC1(CCC(C)C)C(=O)[N-]C(=O)NC1=O.[Cu+2].c1ccncc1.c1ccncc1 [Cu(II)(Amobarbital)2 (pyridine)2] | – | 100 milligrams per kilogram of bod | 30 milligrams per kilogram of bod | 600 milligrams per kilogram of bod | 600 milligrams per kilogram of bod | 300 milligrams per kilogram of bod | 300 milligrams per kilogram of bod | I | 100 milligrams per kilogram of bod | –
CC(=O)Oc1ccccc1C(=O)O [Aspirin, acetylsalicylate, reference compound] | – | – | – | – | – | – | – | – | – | Anticonvulsant activity, Metrazol ([2]; Table VI, IP): I; Anticonvulsant activity, Maximal Electroshock ([3]; Table VI, IP): I
CCC1(CCC(C)C)C(=O)[N-]C(=O)NC1=O.CCC1(CCC(C)C)C(=O)[N-]C(=O)NC1=O.O.O.[Cu+2] [Cu(II)(Amobarbital)2 (H2 O)2] | – | 100 milligrams per kilogram of bod | I | 100 milligrams per kilogram of bod | I | 100 milligrams per kilogram of bod | I | 300 milligrams per kilogram of bod | I | –
Cu(II)2 (benzoate)4 | effective in protecting against both Maximal Electroshock and Metrazol-induced seizures | – | – | – | – | – | – | – | – | –
CCC1(c2ccccc2)C(=O)[N-]C(=O)NC1=O.CCC1(c2ccccc2)C(=O)[N-]C(=O)NC1=O.[Cu+2].c1c[nH]cn1.c1c[nH]cn1 [Cu(II)(Phenobarbital)2 (imidazole)2] | – | 300 milligrams per kilogram of bod | 30 milligrams per kilogram of bod | 100 milligrams per kilogram of bod | 100 milligrams per kilogram of bod | 100 milligrams per kilogram of bod | 100 milligrams per kilogram of bod | I | 100 milligrams per kilogram of bod | –
CC(C)C[C@H](N)C(=O)[O-].CC(C)C[C@H](N)C(=O)[O-].[Cu+2] [Cu(II)(L-leucinate)2] | found to have anticonvulsant activity | – | – | – | – | – | – | – | – | –
CC(C)c1cc(C(=O)[O-])c(O)c(C(C)C)c1.CC(C)c1cc(C(=O)[O-])c(O)c(C(C)C)c1.[Cu+2] [Cu(II)(3,5-diisopropylsalicylate)2] | effective in preventing both the Maximal Electroshock and Metrazol-inducedseizures in Phase I studies | – | – | – | – | – | – | – | – | –
Cu(II)n (Phenobarbital)n (H2 O)2n (H2 O)3n | – | – | – | 30 milligrams per kilogram of bod | 30 milligrams per kilogram of bod | – | – | 100 milligrams per kilogram of bod | 30 milligrams per kilogram of bod | –
CCCC(C)C1(CC)C(=O)N=C([S-])NC1=O.CCCC(C)C1(CC)C(=O)N=C([S-])NC1=O.O.O.[Cu+2] (stereo not drawn) [Cu(II)(S--thiopental)2 (H2 O)2] | – | I | I | I | I | I | I | I | I | –
N[C@@H](CO)C(=O)[O-].N[C@@H](CO)C(=O)[O-].[Cu+2] [Cu(II)(L-serinate)2] | found to have anticonvulsant activity | – | – | – | – | – | – | – | – | –
